Data published in US11564394B2, “Distorted gold (I)-phosphine complexes and methods for use as antifungal agents” (University of Kentucky Research Foundation, priority 2019, dated 2023).
In brackets after ≈: the same amount, converted by molar mass. Like-named read-outs stand apart in the source and are kept apart here.

Assays:
[1] = tested on: F. graminearum 053 (strain T); type: cell-based, Fusarium graminearum; conditions: strain T = F. graminearum 053; MIC-0; room temperature, 5 days
[2] = tested on: C. neoformans ATCC MYA-85 (strain M); experiment: MIC determination (broth microdilution); type: cell-based, Cryptococcus neoformans; conditions: strain M = C. neoformans ATCC MYA-85; MIC-0; 72 h at 35° C.
[3] = tested on: C. neoformans CN2 (strain O); experiment: MIC determination (broth microdilution); type: cell-based, Cryptococcus neoformans; conditions: MIC-0, 72 h at 35° C.
[4] = tested on: C. auris AR Bank # 0390 (strain L) pre-formed biofilm; type: cell-based, Candida auris; conditions: biofilm treated at 24 h, XTT
[5] = tested on: C. auris AR Bank # 0384 (strain K) pre-formed biofilm; type: cell-based, Candida auris; conditions: biofilm treated at 24 h, XTT
[6] = tested on: C. albicans ATCC 90819(R) (strain G); type: cell-based, Candida albicans; conditions: strain G = C. albicans ATCC 90819(R); MIC-0; 48 h; listed as printed without letter, below G
[7] = tested on: C. auris AR Bank # 0382 (strain II); experiment: MIC determination (broth microdilution); type: cell-based, Candida auris; conditions: strain II = C. auris AR Bank # 0382; MIC-0; 48 h (CAS read at 24 h)
[8] = tested on: C. krusei ATCC 6258 (strain I); experiment: MIC determination (broth microdilution); type: cell-based; conditions: strain I = C. krusei ATCC 6258; MIC-0; 48 h; listed as split over r16 and r17 (r17 printed beside letter J)
[9] = tested on: C. auris AR Bank # 0389 (strain VIII); experiment: MIC determination (broth microdilution); type: cell-based, Candida auris; conditions: strain VIII = C. auris AR Bank # 0389; MIC-0; 48 h (CAS read at 24 h)
[10] = tested on: C. glabrata ATCC 2001 (strain H) pre-formed biofilm; experiment: Disruption of pre-formed biofilm (XTT); type: cell-based, Candida glabrata; conditions: for Pre-formed biofilm SMIC90: biofilm treated at 24 h, XTT
[11] = tested on: C. auris AR Bank # 0384 (strain K) biofilm; type: cell-based, Candida auris; conditions: treated at 0 h, XTT
[12] = tested on: C. auris AR Bank # 0383 (strain III); experiment: MIC determination (broth microdilution); type: cell-based, Candida auris; conditions: strain III = C. auris AR Bank # 0383; MIC-0; 48 h (CAS read at 24 h)
[13] = tested on: C. neoformans CN1 (strain N); experiment: MIC determination (broth microdilution); type: cell-based, Cryptococcus neoformans; conditions: MIC-0, 72 h at 35° C.
[14] = tested on: C. glabrata ATCC 2001 (strain H); experiment: MIC determination (broth microdilution); type: cell-based, Candida glabrata; conditions: strain H = C. glabrata ATCC 2001; MIC-0; 48 h at 35° C.
[15] = tested on: C. auris AR Bank # 0390 (strain L); experiment: MIC determination (broth microdilution); type: cell-based, Candida auris; conditions: strain L = C. auris AR Bank # 0390; MIC-0; 48 h (CAS read at 24 h); Table 1 row printed without letter, below L; also in Table 2
[16] = tested on: C. albicans ATCC 10231(R) (strain B); type: cell-based, Candida albicans
[17] = tested on: C. auris AR Bank # 0385 (strain IV); experiment: MIC determination (broth microdilution); type: cell-based, Candida auris; conditions: strain IV = C. auris AR Bank # 0385; MIC-0; 48 h (CAS read at 24 h)
[18] = tested on: A. nidulans ATCC 38163 (strain Q); experiment: MIC determination (broth microdilution); type: cell-based, Aspergillus nidulans; conditions: strain Q = A. nidulans ATCC 38163; MIC-0; 72 h at 35° C.
J774A.1 = experiment: Mammalian cytotoxicity assay (resazurin cell viability); type: cell-based; conditions: J774A.1 (murine macrophage); read-out: IC50 for mammalian cell lines
From the text: (§1) For cytotoxicity assays, the human embryonic kidney cell line (HEK-293) was purchased from the ATCC. The human bronchial epithelial cell line (BEAS-2B), the human lung carcinoma cell line (A549), and the mouse macrophage cell line (J774A.1) were generous gifts from Prof. David K. Orren (University of Kentucky, Lexington, Ky.), Prof. Markos Leggas (University of Kentucky, Lexington, Ky.), and Prof. David J. Feola (University of Kentucky, Lexington, Ky.), respectively. A549, HEK-293, and BEAS-2B cells were cultured in Dulbecco's Modified Eagle's Medium (DMEM, catalog #VWRL0100, VWR, Chicago, Ill.) supplemented with 10% fetal bovine serum (FBS; from ATCC) and 1% penicillin/streptomycin (from ATCC) at 37° C. with 5% CO2. The J774A.1 cells were cultured in DMEM (catalog #30-2002, ATCC, Manassas, Va.), which was also supplemented with FBS and antibiotics and grown at 37° C. with 5% CO2.
(§2) To examine whether the compounds are safe for human cells, cytotoxicity assays were done against four mammalian cell lines: HEK-293, A549, BEAS-2B, and J774A.1 cells. […] HEK-293 and J774A.1 cells were plated at 1×10^4 cells/mL while A549 and BEAS-2B were plated at 3×10^3 cells/mL. Compounds were tested in concentrations ranging from 0.06 to 15.6 μg/mL with final concentration of DMSO at 0.5% (FIG. 4A-D).

HEK-293 = experiment: as above; type: cell-based; conditions: HEK-293 (human embryonic kidney); read-out: IC50 for mammalian cell lines
From the text: as §1, §2

A549 = experiment: as above; type: cell-based; conditions: A549 (human lung carcinoma); read-out: IC50 for mammalian cell lines
From the text: as §1, §2

BEAS-2B = experiment: as above; type: cell-based; conditions: BEAS-2B (human bronchial epithelial); read-out: IC50 for mammalian cell lines
From the text: as §1, §2

[19] = strain B = C. albicans ATCC 10231(R), MIC-0, 48 h, listed as split over r8 and r9 (r9 printed beside letter C)

Compound	MIC [1]	MIC (in parentheses) [1]	MIC [2]	MIC (in parentheses) [2]	MIC [3]	MIC (in parentheses) [3]	Pre-formed biofilm SMIC90 [4]	Pre-formed biofilm SMIC90 [5]	MIC [6]	MIC (in parentheses) [6]	MIC [8]	MIC (in parentheses) [8]	Pre-formed biofilm SMIC90 [10]	Biofilm prevention SMIC90 [11]	MIC [13]	MIC (in parentheses) [13]	MIC [14]	MIC (in parentheses) [14]	MIC [15]	MIC (in parentheses) [15]	other results
C[C@@H]1[C@H](O)[C@@H](C)/C=C/C=C/C=C/C=C/C=C/C=C/C=C/[C@H](O[C@@H]2O[C@H](C)[C@@H](O)[C@H](N)[C@@H]2O)C[C@@H]2O[C@](O)(C[C@@H](O)C[C@@H](O)[C@H](O)CC[C@@H](O)C[C@@H](O)CC(=O)O[C@H]1C)C[C@H](O)[C@H]2C(=O)O [AmB, amphotericin B, reference compound]	7.8 µg/mL (≈ 8.44 µM)	8.4 µM (≈ 7.76 µg/mL)	> 31.3 µg/mL	> 33.9 µM	1.95 µg/mL (≈ 2.11 µM)	2.1 µM (≈ 1.94 µg/mL)	7.8 µg/mL	1.95 µg/mL	0.98 µg/mL (≈ 1.06 µM)	1.1 µM (≈ 1.02 µg/mL)	3.9 µg/mL (≈ 4.22 µM)	4.2 µM (≈ 3.88 µg/mL)	7.8 µg/mL	1.95 µg/mL	0.98 µg/mL (≈ 1.06 µM)	1.1 µM (≈ 1.02 µg/mL)	3.9 µg/mL (≈ 4.22 µM)	4.2 µM (≈ 3.88 µg/mL)	1.95 µg/mL (≈ 2.11 µM)	2.1 µM (≈ 1.94 µg/mL)	MIC [7]: 0.98 µg/mL (≈ 1.06 µM); MIC (in parentheses) [7]: 1.1 µM (≈ 1.02 µg/mL); MIC [9]: 1.95 µg/mL (≈ 2.11 µM); MIC (in parentheses) [9]: 2.1 µM (≈ 1.94 µg/mL); SMIC90 of pre-formed biofilm relative to MIC with planktonic cells [10]: 2 fold; MIC [12]: 1.95 µg/mL (≈ 2.11 µM); MIC (in parentheses) [12]: 2.1 µM (≈ 1.94 µg/mL); MIC [16, 19]: 1.95 µg/mL (≈ 2.11 µM); MIC (in parentheses) [16, 19]: 2.1 µM (≈ 1.94 µg/mL); MIC [17]: 1.95 µg/mL (≈ 2.11 µM); MIC (in parentheses) [17]: 2.1 µM (≈ 1.94 µg/mL)
bis-[1,2-bis[(2R,5R)-2,5-dimethylfphospholano]benzene]gold(1) [Compound 6]	3.9 µg/mL	4.6 µM	0.25 µg/mL	0.3 µM	0.49 µg/mL	0.6 µM	7.8 µg/mL	7.8 µg/mL	0.49 µg/mL	0.6 µM	0.98 µg/mL	0.6 µM	3.9 µg/mL	3.9 µg/mL	0.49 µg/mL	0.6 µM	0.98 µg/mL	0.6 µM	1.95 µg/mL	2.3 µM	MIC [18]: 3.9 µg/mL; MIC (in parentheses) [18]: 4.6 µM; IC50 (J774A.1): 1500 ± 100 nM; IC50 (HEK-293): 5700 ± 500 nM; IC50 (A549): 2500 ± 200 nM; IC50 (BEAS-2B): 4900 ± 300 nM; MIC [7]: 0.98 µg/mL; MIC (in parentheses) [7]: 1.2 µM; MIC [9]: 1.95 µg/mL; MIC (in parentheses) [9]: 2.3 µM; SMIC90 of pre-formed biofilm relative to MIC with planktonic cells [10]: 4 fold; MIC [12]: 3.9 µg/mL; MIC (in parentheses) [12]: 4.6 µM; MIC [16]: 0.98 (1.2) μg/mL; MIC (in parentheses) [16]: 0.98 (1.2) μM; MIC [17]: 1.95 µg/mL; MIC (in parentheses) [17]: 2.3 µM
CC(=O)OC[C@H]1O[C@@H]([S-])[C@H](OC(C)=O)[C@@H](OC(C)=O)[C@@H]1OC(C)=O.CCP(CC)CC.[Au+] [Auranofin, auranofin, reference compound]	> 31.3 µg/mL	> 46.1 µM	≤ 0.06 µg/mL	≤ 0.1 µM	7.8 µg/mL	11.5 µM	>31.3 µg/mL	>31.3 µg/mL	> 31.3 µg/mL	> 46.1 µM	31.3 µg/mL	46.1 µM	>31.3 µg/mL	>31.3 µg/mL	3.9 µg/mL	5.7 µM	> 31.3 µg/mL	> 46.1 µM	> 31.3 µg/mL	> 46.1 µM	MIC [18]: 3.9 µg/mL; MIC (in parentheses) [18]: 5.7 µM; IC50 (J774A.1): 16200 nM; IC50 (HEK-293): 3000 ± 200 nM; IC50 (A549): 500 ± 100 nM; IC50 (BEAS-2B): 1300 ± 100 nM; Pre-formed biofilm SMIC90 ([10]; listed as auranofin): inactive; MIC [16, 19]: > 31.3 µg/mL; MIC (in parentheses) [16, 19]: > 46.1 µM
bis-[1,2-bis[(2S,5S)-2,5-dimethylphospholano]benzene]gold(I) [Compound 4]	3.9 µg/mL	4.6 µM	0.98 µg/mL	1.2 µM	0.98 µg/mL	1.2 µM	15.6 µg/mL	7.8 µg/mL	0.98 µg/mL	1.2 µM	1.95 µg/mL	2.3 µM	7.8 µg/mL	3.9 µg/mL	0.98 µg/mL	1.2 µM	1.95 µg/mL	2.3 µM	7.8 µg/mL	9.2 µM	MIC [18]: 3.9 µg/mL; MIC (in parentheses) [18]: 4.6 µM; IC50 (J774A.1): 1500 ± 100 nM; IC50 (HEK-293): 1900 ± 700 nM; IC50 (A549): 4500 nM; IC50 (BEAS-2B): 2000 ± 300 nM; MIC [7]: 1.95 µg/mL; MIC (in parentheses) [7]: 2.3 µM; MIC [9]: 1.95 µg/mL; MIC (in parentheses) [9]: 2.3 µM; SMIC90 of pre-formed biofilm relative to MIC with planktonic cells [10]: 4 fold; MIC [12]: 1.95 µg/mL; MIC (in parentheses) [12]: 2.3 µM; MIC [16]: 1.95 (2.3) μg/mL; MIC (in parentheses) [16]: 1.95 (2.3) μM; MIC [17]: 1.95 µg/mL; MIC (in parentheses) [17]: 2.3 µM
